One assay has as its system T1, CBM24DG-GspInv.
T1 construct: Clostridium thermocellum CBM24 fused to N-terminus of GspInv; secreted from K. pastoris GS115 (pPIC9K)
Briefly: initial rate, released glucose by glucose oxidase method, Michaelis-Menten fit. To be noted: 50 mM citrate-phosphate pH 5.0, 45°C, 1 mM-2 M sucrose; free (not immobilised) fusion enzyme. In kind it is biochemical, Gongronella sp. w5. The source says: initial rate, released glucose by glucose oxidase method, Michaelis-Menten fit on CBM24DG-GspInv

Another assay relates to T2, GspInv.
T2 construct: secreted from Komagataella (Pichia) pastoris GS115 with alpha-factor signal of pPIC9K; cDNA 1,761 bp; primer-encoded N-terminus MVLADP, C-terminus FNRP; catalytic D46, D173, E251
The description is as above. To be noted: 50 mM citrate-phosphate pH 5.0, 45°C, 1 mM-2 M sucrose. Type of assay: biochemical, Gongronella sp. w5. An excerpt: initial rate, released glucose by glucose oxidase method, Michaelis-Menten fit on GspInv

The structures appear in SMILES notation.

In general, Km refers to the substrate concentration at which the rate is half of its maximum. As for `OC[C@H]1O[C@@](CO)(O[C@H]2O[C@H](CO)[C@@H](O)[C@H](O)[C@H]2O)[C@@H](O)[C@@H]1O` [sucrose], the values for the Km in the assay on CBM24DG-GspInv and with GspInv were 10.3 ± 1.2 mM and 8.7 ± 1.1 mM, respectively.

Source of the values: PMC7160231, “Identification and Immobilization of an Invertase With High Specific Activity and Sucrose Tolerance Ability of Gongronella sp. w5 for High Fructose Syrup Preparation” (Frontiers in Microbiology, 2020).
